Data published in patent US12441757B2, “Platform for screening NAD+ binding proteins in a cellular context” (OREGON HEALTH & SCIENCE UNIVERSITY, priority 2020, dated 2025).

Experiments:
Type in all cases: binding
PARP-1 = biological target: T1, PARP-1 (Homo sapiens, UniProt P09874); assay: Competition labeling of PARP-1 by 2-ad-BAD
T1 construct: Full length His6-PARP-1 and His6-SUMO-PARP-10 proteins we expressed and purified; His6 (N); made in house
Source text: (§1) FIG. 8. Densitometry analyses of FIG. 3A panels (A,B) comparing the inhibitory effect of nucleotides and (B) panels (C,D) comparing inhibitory effect of PARP inhibitors on PARP-1 and PARP-10 labelling by 2-ad-BAD. TAMRA in-gel fluorescence was normalized to Coomassie staining, except for PARP-1 NAD^+ treated samples where relative to control TAMRA signal is reported due to auto-PARylation induced molecular weight shift and therefore not detectable Coomassie signal at PARP-1 molecular weight of ˜110 kDa. Data are mean±SEM of 3 independent experiments.
(§2) Treatments. Recombinant PARP-1 (250 nM), PARP-10 (250 nM) or AK1 (500 nM; Novus Biologicals) were diluted in 100 mM NaCl, 50 mM HEPES [pH 7.4], 4 mM MgCl2, 0.2 mM TCEP. PARP-1 reactions also contained 10 μg/mL of activated calf thymus DNA (Sigma-Aldrich D4522), unless otherwise noted. In experiments reported in FIG. 2, the samples were treated with 0.1 μM 2-ad-BAD or ad-olaparib for 10 min. In competition experiments reported in FIG. 3 and Figure S3, samples were first treated with 150 μM of indicated nucleotides for 10 minute and then with 0.3 μM 2-ad-BAD for additional 10 min. All treatments occurred at RT. Samples were then kept in the dark or irradiated for 5 min in the RPR-100 Photochemical Reactor (Rayonet) equipped with 350 nm lamps at 4° C.
(§3) Click Chemistry. 25 μL of each sample was mixed with 5 μL of fatty acid free BSA and SDS to give a final Click reaction concentration of 1 mg/mL and 1%, respectively. Click reactions were started by adding 15 μL of PBS based 3× click reaction mix (final 1× concentrations shown): 100 μM Tris[(1-benzyl-1H-1,2,3triazol-4-yl)methyl]amine (TBTA, Click Chemistry Tools), 1 mM CuSO4, 40 μM tetramethylrhodamine (TAMRA)-azide (Click Chemistry Tools), 1 mM Tris(2-carboxyethyl)phosphine hydrochloride (TCEP, Thermo Fisher) and 5% tert-Butyl alcohol to each sample, and let to proceed for 1 h at RT while gently shaking. Reactions were stopped by adding 4× Laemmli sample buffer and boiling at 95° C. for 5 min.
(§4) In gel fluorescence and staining. Samples were loaded to 10 or 12% SDS-polyacrylamide gels and run until the dye front left the gel. In-gel fluorescence was detected with ChemiDoc XRS+ (Biorad) using Rhodamine filter and then the gels were stained with Coomassie blue or Silver using standard protocols.

Adenylate kinase 1 (AK1) = biological target: T2, Adenylate kinase 1 (AK1) (Homo sapiens, UniProt P00568); assay: Labeling of recombinant AK1 by 2-ad-BAD and nucleotide competition; details: 150 μM competitor, 0.3 μM 2-ad-BAD
T2 construct: purchased Novus Biologicals NBP1-50855
T2 sequence (P00568 1-194): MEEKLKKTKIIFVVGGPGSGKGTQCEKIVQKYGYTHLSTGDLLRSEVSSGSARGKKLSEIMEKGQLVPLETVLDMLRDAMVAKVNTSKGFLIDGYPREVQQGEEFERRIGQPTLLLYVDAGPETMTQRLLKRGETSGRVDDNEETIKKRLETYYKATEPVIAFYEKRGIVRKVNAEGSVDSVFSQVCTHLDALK
Protocol: FIG. 10. Validation of Adenylate kinase 1 (AK1) as a putative NAD^+/NADH binding protein. […] Recombinant AK1 (500 nM) in 100 mM NaCl, 50 mM HEPES [pH 7.4], 4 mM MgCl2, 0.2 mM TCEP was incubated with 150 μM of indicated competitor molecule for 10 min, followed by 10 min treatment with 0.3 μM 2-ad-BAD. Samples were then subjected to UV light for 5 min, conjugated to TAMRA using Click chemistry, separated by SDS-PAGE and in-gel fluorescence was recorded. […] (FIG. 10B) A differential scanning fluorimetry assay is supportive of NADH as novel AK1 ligand. Recombinant AK1 (0.1 mg/mL) in 100 mM NaCl, 50 mM HEPES, pH 7.4, 4 mM MgCl2, 7.5× SYPRO Orange was tested for thermal stability in the absence or presence of indicated nucleotides at 1 mM. Ordinate reports on the difference of melt peak temperature prompted by indicated treatments. Data are mean±SEM of 3 independent experiments.
as §2, §3, §4

PARP-10 = biological target: T3, PARP-10 (Homo sapiens, UniProt Q53GL7); assay: Competition labeling of PARP-10 by 2-ad-BAD
T3 construct: Full length His6-PARP-1 and His6-SUMO-PARP-10 proteins we expressed and purified; His6 (N); SUMO (N); made in house
T3 sequence (Q53GL7 1-1025): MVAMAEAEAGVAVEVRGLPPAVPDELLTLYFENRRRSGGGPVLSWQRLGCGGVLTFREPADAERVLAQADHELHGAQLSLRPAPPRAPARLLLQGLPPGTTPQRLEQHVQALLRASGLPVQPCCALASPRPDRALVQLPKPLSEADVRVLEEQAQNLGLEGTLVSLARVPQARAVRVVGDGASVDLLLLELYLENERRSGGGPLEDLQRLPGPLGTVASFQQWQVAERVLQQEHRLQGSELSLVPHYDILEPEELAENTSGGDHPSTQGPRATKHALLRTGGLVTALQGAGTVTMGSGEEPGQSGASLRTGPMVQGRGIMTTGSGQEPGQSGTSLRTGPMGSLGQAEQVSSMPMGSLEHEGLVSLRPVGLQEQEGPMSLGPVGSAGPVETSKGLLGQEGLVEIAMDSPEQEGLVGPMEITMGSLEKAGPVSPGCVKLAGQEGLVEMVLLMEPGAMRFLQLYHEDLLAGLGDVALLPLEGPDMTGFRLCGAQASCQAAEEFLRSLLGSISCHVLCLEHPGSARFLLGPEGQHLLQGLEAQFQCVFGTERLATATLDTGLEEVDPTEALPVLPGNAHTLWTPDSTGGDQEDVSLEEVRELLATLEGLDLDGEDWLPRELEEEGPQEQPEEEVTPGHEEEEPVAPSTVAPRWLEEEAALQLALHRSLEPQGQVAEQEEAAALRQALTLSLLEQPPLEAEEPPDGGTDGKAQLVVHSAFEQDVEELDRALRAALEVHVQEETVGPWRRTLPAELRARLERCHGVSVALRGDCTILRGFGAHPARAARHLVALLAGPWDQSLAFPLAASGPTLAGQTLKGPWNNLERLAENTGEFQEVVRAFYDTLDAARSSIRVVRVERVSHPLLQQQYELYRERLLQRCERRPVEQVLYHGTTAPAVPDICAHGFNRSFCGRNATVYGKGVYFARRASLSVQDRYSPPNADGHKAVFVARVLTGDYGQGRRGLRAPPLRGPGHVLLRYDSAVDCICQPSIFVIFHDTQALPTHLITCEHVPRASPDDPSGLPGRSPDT
Source text: as §1, §2, §3, §4

[1] = 150 μM nucleotide, 0.3 μM 2-ad-BAD

T1 sequence (P09874 whole entry): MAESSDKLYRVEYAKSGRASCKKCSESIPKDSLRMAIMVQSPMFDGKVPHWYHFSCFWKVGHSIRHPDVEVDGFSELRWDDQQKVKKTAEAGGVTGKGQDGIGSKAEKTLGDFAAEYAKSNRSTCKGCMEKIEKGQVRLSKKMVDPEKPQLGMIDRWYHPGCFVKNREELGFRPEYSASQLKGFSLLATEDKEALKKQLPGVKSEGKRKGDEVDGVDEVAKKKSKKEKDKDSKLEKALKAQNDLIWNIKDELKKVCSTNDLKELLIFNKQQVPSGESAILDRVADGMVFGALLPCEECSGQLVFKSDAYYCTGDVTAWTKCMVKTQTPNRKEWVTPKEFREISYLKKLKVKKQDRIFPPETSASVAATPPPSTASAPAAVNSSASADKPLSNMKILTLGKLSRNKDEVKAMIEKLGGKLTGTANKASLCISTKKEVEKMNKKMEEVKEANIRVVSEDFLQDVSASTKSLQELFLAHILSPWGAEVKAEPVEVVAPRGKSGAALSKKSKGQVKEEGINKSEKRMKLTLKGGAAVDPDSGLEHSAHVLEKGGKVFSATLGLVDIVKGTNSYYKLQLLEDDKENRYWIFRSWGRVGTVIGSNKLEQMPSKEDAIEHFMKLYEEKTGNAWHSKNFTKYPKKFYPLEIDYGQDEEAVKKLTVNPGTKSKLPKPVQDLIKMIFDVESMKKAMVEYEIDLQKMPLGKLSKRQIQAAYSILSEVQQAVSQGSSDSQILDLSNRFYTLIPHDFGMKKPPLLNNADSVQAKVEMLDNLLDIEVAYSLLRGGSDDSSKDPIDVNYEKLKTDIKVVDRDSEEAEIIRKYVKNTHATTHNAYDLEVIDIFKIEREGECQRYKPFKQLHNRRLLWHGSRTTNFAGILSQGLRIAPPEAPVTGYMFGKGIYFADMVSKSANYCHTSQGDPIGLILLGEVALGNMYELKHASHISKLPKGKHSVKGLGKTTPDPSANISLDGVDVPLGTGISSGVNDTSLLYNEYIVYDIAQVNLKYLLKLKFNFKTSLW

NC(=O)c1cccc([C@@H]2O[C@H](COP(=O)(O)OP(=O)(O)OC[C@H]3O[C@@H](n4cnc5c(N)ncnc54)[C@H](O)[C@@H]3O)[C@@H](O)[C@H]2O)c1 [BAD, benzamide adenine dinucleotide]
block of 2-ad-BAD labeling of PARP-1 by nucleotides (PARP-1; [1]): reduced
dose-dependent block of 2-ad-BAD labeling of PARP-1 (PARP-1; competitor dose series): dose-dependently block the labeling of PARP-1
competition of 2-ad-BAD labeling of recombinant AK1 (Adenylate kinase 1 (AK1)): effectively competed
block of 2-ad-BAD labeling of PARP-10 by nucleotides (PARP-10; [1]): reduced
dose-dependent block of 2-ad-BAD labeling of PARP-10 (PARP-10; competitor dose series): dose-dependently block the labeling of PARP-10
